Earlier results, collected in publication PMC11996792, “First-in-human study of CPL’116 – a dual JAK/ROCK inhibitor – in healthy subjects” (Frontiers in Pharmacology, 2025).
Where two headings read alike, the source gives them in different places. One block for each compound: values may come before it.

mean half-life (ref Mohamed et al., 2016): 5.9 to 14.5 h
SMILES: CC[C@@H]1CN(C(=O)NCC(F)(F)F)C[C@@H]1c1cnc2cnc3[nH]ccc3n12 [upadacitinib]

mean half-life (extended-release formulation, ref Lamba et al., 2016): 5.9 h
mean half-life (immediate formulation, ref Lamba et al., 2016): 3.2 h
SMILES: C[C@@H]1CCN(C(=O)CC#N)C[C@@H]1N(C)c1ncnc2[nH]ccc12 [tofacitinib]

The next lines start with the compound.

SMILES: CC(C)NC(=O)COc1cccc(-c2nc(Nc3ccc4[nH]ncc4c3)c3ccccc3n2)c1 [belumosudil]
mean half-life (ref Schueller et al., 2024): 7.5 to 10.9 h

SMILES: CCS(=O)(=O)N1CC(CC#N)(n2cc(-c3ncnc4[nH]ccc34)cn2)C1 [baricitinib]
mean half-life (ref Shi et al., 2014): 8.5 h
mean half-life (ref Zhao et al., 2020): 5.8 to 7.4 h

SMILES: O=S(=O)(c1cccc2c(O)nccc12)N1CCCNCC1 [hydroxyfasudil]
mean half-life (ref Wolff et al., 2024): 5.5 to 5.7 h
